In the supplement of paper PMC10307832:

Assays:
Assay in all cases: relative viability (nuclei count vs DMSO), 5 days (fraction); higher = more cells survive
[1] = compound: C(C(=O)C(=O)O)Br [Bromopyruvate] + CC(=O)c1c(C)c2cnc(Nc3ccc(N4CCNCC4)cn3)nc2n(C2CCCC2)c1=O [Palbociclib] (partner 0.5 µM)
Procedure, shortened: (§1)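 Medians of duplicate plates are given as relative viability. That measure is the nuclei count in treated wells divided by the count in vehicle wells. Counts were taken on 4× images of lung cancer cell lines in 1536-well plates, 5 days after pin-tool dosing the day after seeding with one drug alone or a fixed anchor-drug dose plus five library-drug doses (not always all listed) in √10 steps.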

[2] = compound: C(C(=O)C(=O)O)Br [Bromopyruvate] + Nc1nc2[nH]cc(CCc3ccc(C(=O)N[C@@H](CCC(=O)O)C(=O)O)cc3)c2c(=O)[nH]1 [Pemetrexed] (partner 0.2 µM)
Procedure, shortened: as §1

Bicalutamide + Alpelisib = compound: CC(O)(CS(=O)(=O)c1ccc(F)cc1)C(=O)Nc1ccc(C#N)c(C(F)(F)F)c1 [Bicalutamide] + Cc1nc(NC(=O)N2CCC[C@H]2C(N)=O)sc1-c1ccnc(C(C)(C)C(F)(F)F)c1 [Alpelisib] (partner 2 µM)
Procedure, shortened: as §1

[3] = compound: CC(O)(CS(=O)(=O)c1ccc(F)cc1)C(=O)Nc1ccc(C#N)c(C(F)(F)F)c1 [Bicalutamide] + Nc1ncn([C@H]2C[C@H](O)[C@@H](CO)O2)c(=O)n1 [Decitabine] (partner 2 µM)
Procedure, shortened: as §1

| Cell Line | relative viability ([1]; first compound 1 µM) | relative viability ([1]; first compound 3.162 µM) | relative viability ([1]; first compound 10 µM) | relative viability ([1]; first compound 31.62 µM) | relative viability ([1]; first compound 100 µM) | relative viability ([2]; first compound 1 µM) | relative viability ([2]; first compound 3.162 µM) | relative viability ([2]; first compound 10 µM) | relative viability ([2]; first compound 31.62 µM) | relative viability ([2]; first compound 100 µM) | relative viability (Bicalutamide + Alpelisib; first compound 0.08 µM) | relative viability (Bicalutamide + Alpelisib; first compound 0.253 µM) | relative viability (Bicalutamide + Alpelisib; first compound 0.8 µM) | relative viability (Bicalutamide + Alpelisib; first compound 2.53 µM) | relative viability ([3]; first compound 0.08 µM) | relative viability ([3]; first compound 0.253 µM) | relative viability ([3]; first compound 0.8 µM) | relative viability ([3]; first compound 2.53 µM) |
| --- | --- | --- | --- | --- | --- | --- | --- | --- | --- | --- | --- | --- | --- | --- | --- | --- | --- | --- |
| COR-L 105 | 0.404 | 0.396 | 0.415 | 0.374 | 0.429 | 1.25 | 1.19 | 1.1 | 1 | 0.532 | 0.957 | 0.89 | 1 | 0.83 | 0.765 | 0.6 | 0.698 | 0.63 |
| SK-LU-1 | 0.372 | 0.363 | 0.365 | 0.346 | 0.428 | 0.998 | 0.961 | 1.02 | 0.886 | 0.874 | 1.12 | 0.962 | 1.41 | 0.848 | 0.689 | 0.611 | 0.791 | 0.61 |
| LXF-289 | 0.625 | 0.649 | 0.629 | 0.637 | 0.638 | 0.874 | 0.92 | 0.899 | 0.958 | 0.941 | 1.04 | 0.952 | 1.08 | 1.03 | 0.346 | 0.398 | 0.403 | 0.403 |
| PC-3 [JPC-3] | 0.548 |  | 0.537 |  | 0.536 | 1.3 |  | 0.783 |  | 1.11 | 1.08 | 1.01 | 1.09 | 1.07 | 0.791 | 0.88 | 0.797 | 0.873 |
| NCI-H661 | 0.401 | 0.387 | 0.378 | 0.403 | 0.428 | 0.905 | 0.944 | 0.985 | 0.889 | 0.907 | 0.594 | 0.591 | 0.833 | 0.829 | 0.546 | 0.51 | 0.557 | 0.549 |
| NCI-H1666 | 0.618 | 0.632 | 0.64 | 0.622 | 0.599 | 0.834 | 0.896 | 1.02 | 0.859 | 0.855 | 1.01 | 0.889 | 1.13 | 0.942 | 0.724 | 0.706 | 0.767 | 0.723 |
| NCI-H2087 | 0.222 | 0.232 | 0.19 | 0.221 | 0.227 | 0.658 | 0.745 | 0.651 | 0.72 | 0.567 | 1.22 | 0.843 | 1.16 | 1.13 | 0.295 | 0.237 | 0.302 | 0.286 |
| NCI-H1734 | 0.349 | 0.378 | 0.39 | 0.34 | 0.295 | 0.391 | 0.398 | 0.395 | 0.466 | 0.408 | 0.676 | 0.59 | 0.884 | 0.683 | 0.542 | 0.453 | 0.515 | 0.558 |
| EMC-BAC-2 | 0.434 | 0.546 | 0.554 | 0.506 | 0.533 | 0.422 | 0.45 | 0.451 | 0.479 | 0.453 | 0.702 | 0.674 | 0.791 | 0.694 | 0.976 | 0.875 | 0.948 | 0.892 |
| NCI-H2009 | 0.208 | 0.214 | 0.227 | 0.179 | 0.0903 | 1.01 | 1.04 | 0.936 | 0.868 | 1.11 | 1.25 | 1.14 | 1.13 | 1.18 | 0.356 | 0.37 | 0.405 | 0.38 |
| NCI-H650 | 0.385 | 0.306 | 0.316 | 0.338 | 0.335 | 0.971 | 0.924 | 0.81 | 0.989 | 0.941 | 1.34 | 1.04 | 1.35 | 0.814 | 0.318 | 0.308 | 0.333 | 0.335 |
| NCI-H1792 | 0.673 | 0.698 | 0.684 |  | 0.656 | 0.904 | 0.997 | 0.699 | 0.894 | 0.983 | 0.722 | 0.656 | 0.794 | 0.665 | 0.543 | 0.466 | 0.618 | 0.548 |
| SW 1573 | 0.401 | 0.395 | 0.373 | 0.266 | 0.0467 | 0.783 | 0.792 | 0.899 | 0.436 | 0.0549 | 0.678 | 0.639 | 0.831 | 0.689 | 0.664 | 0.457 | 0.659 | 0.441 |
| NCI-H2023 | 0.406 | 0.382 | 0.4 | 0.411 | 0.385 | 0.231 | 0.246 | 0.273 | 0.205 | 0.187 | 0.593 | 0.59 | 0.555 | 0.608 | 0.267 | 0.227 | 0.248 | 0.233 |
| LOU-NH91 | 0.53 | 0.545 | 0.494 | 0.544 | 0.587 | 0.402 | 0.371 | 0.366 | 0.402 | 0.443 | 0.698 | 0.608 | 0.828 | 0.745 | 0.769 | 0.817 | 0.83 | 0.836 |
| NCI-H3122 | 0.167 | 0.202 | 0.197 | 0.178 | 0.13 | 0.209 | 0.193 | 0.186 | 0.183 | 0.192 | 0.707 | 0.92 | 0.821 | 0.767 | 0.4 | 0.45 | 0.449 | 0.455 |
| LCLC-97TM1 | 0.203 | 0.21 | 0.276 | 0.239 | 0.214 | 0.182 | 0.152 | 0.187 | 0.164 | 0.195 | 0.254 | 0.231 | 0.286 | 0.226 | 0.222 | 0.202 | 0.305 | 0.234 |
| NCI-H647 | 0.4 | 0.312 | 0.466 | 0.386 | 0.506 | 0.17 | 0.162 | 0.156 | 0.184 | 0.177 | 1.32 | 1.33 | 1.47 | 0.858 | 0.601 | 0.328 | 0.34 | 0.338 |
| NCI-H838 | 0.19 | 0.251 | 0.229 | 0.237 | 0.242 | 0.244 | 0.274 | 0.242 | 0.232 | 0.245 | 0.984 | 0.909 | 0.984 | 0.945 | 0.484 | 0.461 | 0.508 | 0.371 |
| H3255 | 0.314 | 0.31 | 0.297 | 0.308 | 0.309 | 0.558 | 0.535 | 0.573 | 0.536 | 0.597 | 0.697 | 0.618 | 1.14 | 0.649 | 0.601 | 0.571 | 0.668 | 0.525 |
| SK-MES-1 | 0.352 | 0.344 | 0.29 | 0.32 | 0.319 | 0.999 | 0.974 | 0.941 | 0.94 | 1.01 | 0.903 | 0.718 | 1.02 | 0.858 | 0.497 | 0.374 | 0.405 | 0.416 |
| NCI-H1437 | 0.342 | 0.285 | 0.323 | 0.314 | 0.305 | 0.307 | 0.315 | 0.339 | 0.329 | 0.337 | 1.02 | 0.988 | 1.24 | 0.954 | 0.554 | 0.501 | 0.599 | 0.616 |
| LU99A | 0.404 | 0.414 | 0.478 | 0.493 | 0.2 | 0.178 | 0.21 | 0.169 | 0.202 | 0.165 | 0.625 | 0.447 | 0.603 | 0.402 | 0.96 | 0.896 | 1.02 | 0.719 |
| HCC-827 | 0.434 | 0.542 | 0.472 | 0.541 | 0.517 | 0.26 | 0.247 | 0.26 | 0.262 | 0.266 | 0.965 | 0.79 | 1.03 | 0.958 | 0.337 | 0.252 | 0.384 | 0.351 |
| LK-2 | 0.688 | 0.858 | 0.797 | 0.637 | 0.678 | 0.346 | 0.23 | 0.312 | 0.237 | 0.261 | 1.21 | 0.878 | 1.44 | 1.16 | 0.345 | 0.238 | 0.329 | 0.305 |
| HCC-366 | 0.405 | 0.361 | 0.43 | 0.395 | 0.38 | 0.17 | 0.174 | 0.146 | 0.203 | 0.2 | 0.476 | 0.255 | 0.465 | 0.37 | 0.369 | 0.284 | 0.351 | 0.327 |
| BEN | 0.457 | 0.449 | 0.505 | 0.497 | 0.486 | 0.87 | 0.656 | 0.833 | 0.62 | 0.753 | 0.89 | 0.991 | 1.36 | 1.01 | 0.736 | 0.658 | 0.838 | 0.7 |
| NCI-H2347 | 0.44 | 0.493 | 0.399 | 0.405 | 0.448 | 0.42 | 0.471 | 0.486 | 0.44 | 0.43 | 1.09 | 1.09 | 1.12 | 0.971 | 0.583 | 0.651 | 0.628 | 0.634 |
| NCI-H1395 | 0.551 | 0.531 | 0.724 | 0.614 | 0.662 | 0.978 | 0.917 | 0.884 | 0.847 | 0.928 | 0.94 | 1.04 | 1.34 | 0.928 | 0.754 | 0.672 | 0.787 | 0.806 |
| 201T | 0.341 | 0.348 | 0.344 | 0.35 | 0.382 | 0.327 | 0.345 | 0.323 | 0.357 | 0.297 | 1.05 | 0.93 | 1.01 | 1 | 0.87 | 0.847 | 0.857 | 0.889 |
